Measured values as given in PubChem BioAssay AID1963971 (Molecular Pharmacology Branch, DTP, NCI, 2024).

Test system: 953936-095-R-J2-PDC spheroids with HUVEC/MSC, viability
Test: Anticancer human tumor 953936-095-R-J2-PDC patient-derived cervical squamous cell carcinoma cell line growth inhibition [PI3K]
Conditions: for IC50: curve of first compound; for viability, T/C: stronger effect = lower value
Outline: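 Tumor cells were combined with HUVEC and MSCs into spheroids, then dosed with PI3K-inhibitor combinations over half-log ranges capped near clinical Cmax or 10 microM.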

[1] = second compound 0.00316 µM, first compound 0.000316 µM
[2] = second compound 0.00316 µM, first compound 0.001 µM
[3] = second compound 0.00316 µM, first compound 0.00316 µM
[4] = second compound 0.00316 µM, first compound 0.01 µM
[5] = second compound 0.00316 µM, first compound 0.0316 µM
[6] = second compound 0.00316 µM, first compound 0.1 µM
[7] = second compound 0.01 µM, first compound 0.000316 µM
[8] = second compound 0.01 µM, first compound 0.001 µM
[9] = second compound 0.01 µM, first compound 0.00316 µM
[10] = second compound 0.01 µM, first compound 0.01 µM
[11] = second compound 0.01 µM, first compound 0.0316 µM
[12] = second compound 0.01 µM, first compound 0.1 µM
[13] = second compound 0.0316 µM, first compound 0.000316 µM
[14] = second compound 0.0316 µM, first compound 0.001 µM
[15] = second compound 0.0316 µM, first compound 0.00316 µM
[16] = second compound 0.0316 µM, first compound 0.01 µM
[17] = second compound 0.0316 µM, first compound 0.0316 µM
[18] = second compound 0.0316 µM, first compound 0.1 µM
[19] = second compound 0.1 µM, first compound 0.000316 µM
[20] = second compound 0.1 µM, first compound 0.001 µM
[21] = second compound 0.1 µM, first compound 0.00316 µM
[22] = second compound 0.1 µM, first compound 0.01 µM
[23] = second compound 0.1 µM, first compound 0.0316 µM
[24] = second compound 0.1 µM, first compound 0.1 µM
[25] = second compound 0.316 µM, first compound 0.000316 µM
[26] = second compound 0.316 µM, first compound 0.001 µM
[27] = second compound 0.316 µM, first compound 0.00316 µM
[28] = second compound 0.316 µM, first compound 0.01 µM
[29] = second compound 0.316 µM, first compound 0.0316 µM
[30] = second compound 0.316 µM, first compound 0.1 µM
[31] = second compound 1 µM, first compound 0.000316 µM
[32] = second compound 1 µM, first compound 0.001 µM
[33] = second compound 1 µM, first compound 0.00316 µM
[34] = second compound 1 µM, first compound 0.01 µM
[35] = second compound 1 µM, first compound 0.0316 µM
[36] = second compound 1 µM, first compound 0.1 µM
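Note: spheroids exposed to compounds for seven days before read-out.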

## CC(=O)c1c(C)c2cnc(Nc3ccc(N4CCNCC4)cn3)nc2n(C2CCCC2)c1=O + COc1c(OCCCN2CCOCC2)ccc2c3n(c(=NC(=O)c4cnc(N)nc4)nc12)CCN3
Second compound 0.00316 µM
  IC50: > 100000 pM
Second compound 0.01 µM
  IC50: > 100000 pM
Second compound 0.0316 µM
  IC50: < 316 pM
Second compound 0.1 µM
  IC50: < 316 pM
Second compound 0.316 µM
  IC50: < 316 pM
Second compound 1 µM
  IC50: < 316 pM
[1]
  viability, T/C: 87.4%
[2]
  viability, T/C: 85.6%
[3]
  viability, T/C: 105%
[4]
  viability, T/C: 88.4%
[5]
  viability, T/C: 94.3%
[6]
  viability, T/C: 81.4%
[7]
  viability, T/C: 71.5%
[8]
  viability, T/C: 77.9%
[9]
  viability, T/C: 82.6%
[10]
  viability, T/C: 78%
[11]
  viability, T/C: 76.9%
[12]
  viability, T/C: 66.6%
[13]
  viability, T/C: 40.5%
[14]
  viability, T/C: 40.2%
[15]
  viability, T/C: 36.7%
[16]
  viability, T/C: 40.6%
[17]
  viability, T/C: 38.2%
[18]
  viability, T/C: 37.1%
[19]
  viability, T/C: 20.1%
[20]
  viability, T/C: 17.4%
[21]
  viability, T/C: 18.9%
[22]
  viability, T/C: 19.3%
[23]
  viability, T/C: 17.6%
[24]
  viability, T/C: 18.4%
[25]
  viability, T/C: 6.83%
[26]
  viability, T/C: 6.01%
[27]
  viability, T/C: 6.03%
[28]
  viability, T/C: 7.86%
[29]
  viability, T/C: 7.33%
[30]
  viability, T/C: 5.96%
[31]
  viability, T/C: 1.78%
[32]
  viability, T/C: 1.73%
[33]
  viability, T/C: 1.47%
[34]
  viability, T/C: 1.54%
[35]
  viability, T/C: 2.14%
[36]
  viability, T/C: 1.68%

## CC(C)n1nc(-c2ccc3oc(N)nc3c2)c2c(N)ncnc21 + COc1c(OCCCN2CCOCC2)ccc2c3n(c(=NC(=O)c4cnc(N)nc4)nc12)CCN3
Second compound 0.00316 µM
  IC50: 18900 pM
Second compound 0.01 µM
  IC50: 10200 pM
Second compound 0.0316 µM
  IC50: < 316 pM
Second compound 0.1 µM
  IC50: < 316 pM
Second compound 0.316 µM
  IC50: < 316 pM
Second compound 1 µM
  IC50: < 316 pM
[1]
  viability, T/C: 79%
[2]
  viability, T/C: 86.9%
[3]
  viability, T/C: 84%
[4]
  viability, T/C: 60.3%
[5]
  viability, T/C: 40.3%
[6]
  viability, T/C: 14.4%
[7]
  viability, T/C: 66.7%
[8]
  viability, T/C: 64.8%
[9]
  viability, T/C: 60.1%
[10]
  viability, T/C: 51.5%
[11]
  viability, T/C: 27.8%
[12]
  viability, T/C: 11.2%
[13]
  viability, T/C: 38.8%
[14]
  viability, T/C: 36%
[15]
  viability, T/C: 31.5%
[16]
  viability, T/C: 23.5%
[17]
  viability, T/C: 16.2%
[18]
  viability, T/C: 7.15%
[19]
  viability, T/C: 18.2%
[20]
  viability, T/C: 15.9%
[21]
  viability, T/C: 14.9%
[22]
  viability, T/C: 11.2%
[23]
  viability, T/C: 8.1%
[24]
  viability, T/C: 4.33%
[25]
  viability, T/C: 6.68%
[26]
  viability, T/C: 6.67%
[27]
  viability, T/C: 5.27%
[28]
  viability, T/C: 4.78%
[29]
  viability, T/C: 3.56%
[30]
  viability, T/C: 2.2%
[31]
  viability, T/C: 1.45%
[32]
  viability, T/C: 1.56%
[33]
  viability, T/C: 1.21%
[34]
  viability, T/C: 1.41%
[35]
  viability, T/C: 1.36%
[36]
  viability, T/C: 1.27%
